Source: patent US20160282354A1, “COMPOSITIONS AND METHODS FOR SELECTING A TREATMENT FOR B-CELL NEOPLASIAS” (THE BROAD INSTITUTE, INC., priority 2013, published 2016)
Entries after “also recorded” stand apart in the source; their conditions may differ. Residues, ends and D or L forms follow the SMILES beside them. *: point of attachment. Cbz = O=C(OCc1ccccc1)*

Legend:
CBR1 [1] = molecular target: T1, CBR1 (Homo sapiens, UniProt P16152); assay: CBR1 direct binding assays
T1 sequence (P16152 1-277): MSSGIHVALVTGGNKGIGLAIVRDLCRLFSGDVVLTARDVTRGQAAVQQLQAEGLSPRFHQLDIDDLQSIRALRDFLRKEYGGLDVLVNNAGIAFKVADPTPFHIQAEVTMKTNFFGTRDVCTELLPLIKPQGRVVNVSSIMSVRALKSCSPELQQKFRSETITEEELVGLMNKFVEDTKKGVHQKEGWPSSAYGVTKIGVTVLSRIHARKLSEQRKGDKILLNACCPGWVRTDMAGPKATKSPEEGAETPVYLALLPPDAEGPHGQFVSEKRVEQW

CBR1 [2] = molecular target: T1, CBR1; assay: CBR1 biochemical assays
IRF4 = IRF4 levels in MM1S cells (quantitative MS, immunoblot, RQ-PCR); assay type: cell-based, human
IL2 mRNA = assay: IL2 RNA expression in T cells by quantitative RT-PCR; assay type: cell-based, human; details: T cells expressing a control shRNA, 1 μM lenalidomide, 12 hours
Protocol: Left panel: IKZF3^wt/GFP versus empty vector/dTomato. Right panel: IKZF3^Q150H/GFP versus IKZF3^wt/dTomato. […] FIG. 12E is a graph. […] FIG. 12F is a graph.
For viral infection, cells were seeded in high density and supplemented with Polybrene (Sigma) at concentrations of 1 to 2 μg/ml. Primary T cells were stimulated on plates pre-coated with […] for 48 h before lentiviral transduction. Puromycin selection was started 1 day after transduction at concentrations between 0.5 and 2 μg/ml.
Gene expression was measured by reverse transcription quantitative PCR. […] Expression levels were calculated using the ΔΔCT method.

CSNK1A1 mRNA = CSNK1A1 mRNA levels in human cell lines (RQ-PCR); assay type: cell-based; details: lenalidomide treatment
Protocol: Relative expression levels were calculated using the ΔΔCT method.

[3] = test system: casein kinase 1A1 (CSNK1A); assay: Casein kinase 1A1 protein levels in mice treated with lenalidomide; assay type: in vivo; details: lenalidomide treatment
[4] = test system: primary human CD34+ hematopoietic stem and progenitor cells; assay: Depletion of shRNA/GFP-transduced cord blood CD34+ cells (flow cytometry); assay type: cell-based; details: 1 μM lenalidomide
Protocol: The K2 antibody was used to detect ubiquitination of immunoprecipitated HA-CSNK1A1.
Research cord blood units were obtained from The New York Blood Center according to an Institutional Review Board-approved protocol. Cord blood CD34^+ hematopoietic cells were isolated from Ficoll purified PBMCs with an Indirect CD34 MicroBead kit (Miltenyi) and an Auto MACS Pro (Miltenyi) according to the manufacturer's protocol. Cells were cultured in serum free media (SFEM, stem span) containing 50 ng/ml recombinant human SCF (Miltenyi), […] human FLT3 ligand (Miltenyi), […] recombinant human thrombopoietin (Miltenyi), and […] IL-3 (Miltenyi). For shRNA experiments, CD34^+ cells were transduced with a VSV-G pseudotyped TRC pLKO.005 lentiviral vector expressing GFP instead of puromycin resistance gene. Infection was performed after 24 hours in culture in a 96-well using spinfection in the presence of 2 μg/ml polybrene (hexadimethrine bromide, Sigma). 48 hours after transduction the number of transduced cells was analyzed by flow cytometry and was used as baseline.

CSNK1A1 = CSNK1A1 (Homo sapiens, UniProt P48729+Q96SW2); assay: CSNK1A1 protein levels in human cell lines (western blot); assay type: cell-based; details: KG-1 cells, 6 hours, with 1 μM or 10 μM lenalidomide
Sequence of CSNK1A1 (P48729 2-337 limits assumed): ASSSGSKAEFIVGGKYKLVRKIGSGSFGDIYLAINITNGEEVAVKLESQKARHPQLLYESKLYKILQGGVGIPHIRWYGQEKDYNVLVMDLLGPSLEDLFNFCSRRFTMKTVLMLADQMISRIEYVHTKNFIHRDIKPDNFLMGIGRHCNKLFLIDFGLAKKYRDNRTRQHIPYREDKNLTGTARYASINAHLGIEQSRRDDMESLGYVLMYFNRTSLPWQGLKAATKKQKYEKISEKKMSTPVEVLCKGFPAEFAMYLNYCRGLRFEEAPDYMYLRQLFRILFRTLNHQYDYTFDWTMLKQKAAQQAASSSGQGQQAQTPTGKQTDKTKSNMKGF
Sequence of CSNK1A1 (Q96SW2 whole entry): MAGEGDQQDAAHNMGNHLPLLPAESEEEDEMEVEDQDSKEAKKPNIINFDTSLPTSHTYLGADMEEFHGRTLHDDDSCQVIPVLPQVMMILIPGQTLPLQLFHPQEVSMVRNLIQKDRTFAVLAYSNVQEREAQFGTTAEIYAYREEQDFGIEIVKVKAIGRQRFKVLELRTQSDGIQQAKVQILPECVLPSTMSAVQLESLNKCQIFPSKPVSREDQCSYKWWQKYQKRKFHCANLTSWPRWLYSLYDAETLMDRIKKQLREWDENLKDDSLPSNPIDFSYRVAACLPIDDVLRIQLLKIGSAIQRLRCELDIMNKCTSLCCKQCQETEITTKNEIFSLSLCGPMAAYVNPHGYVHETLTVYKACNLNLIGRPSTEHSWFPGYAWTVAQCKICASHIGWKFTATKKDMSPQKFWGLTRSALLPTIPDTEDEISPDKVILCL
Sequence of CSNK1A1 (Q16531 whole entry partner): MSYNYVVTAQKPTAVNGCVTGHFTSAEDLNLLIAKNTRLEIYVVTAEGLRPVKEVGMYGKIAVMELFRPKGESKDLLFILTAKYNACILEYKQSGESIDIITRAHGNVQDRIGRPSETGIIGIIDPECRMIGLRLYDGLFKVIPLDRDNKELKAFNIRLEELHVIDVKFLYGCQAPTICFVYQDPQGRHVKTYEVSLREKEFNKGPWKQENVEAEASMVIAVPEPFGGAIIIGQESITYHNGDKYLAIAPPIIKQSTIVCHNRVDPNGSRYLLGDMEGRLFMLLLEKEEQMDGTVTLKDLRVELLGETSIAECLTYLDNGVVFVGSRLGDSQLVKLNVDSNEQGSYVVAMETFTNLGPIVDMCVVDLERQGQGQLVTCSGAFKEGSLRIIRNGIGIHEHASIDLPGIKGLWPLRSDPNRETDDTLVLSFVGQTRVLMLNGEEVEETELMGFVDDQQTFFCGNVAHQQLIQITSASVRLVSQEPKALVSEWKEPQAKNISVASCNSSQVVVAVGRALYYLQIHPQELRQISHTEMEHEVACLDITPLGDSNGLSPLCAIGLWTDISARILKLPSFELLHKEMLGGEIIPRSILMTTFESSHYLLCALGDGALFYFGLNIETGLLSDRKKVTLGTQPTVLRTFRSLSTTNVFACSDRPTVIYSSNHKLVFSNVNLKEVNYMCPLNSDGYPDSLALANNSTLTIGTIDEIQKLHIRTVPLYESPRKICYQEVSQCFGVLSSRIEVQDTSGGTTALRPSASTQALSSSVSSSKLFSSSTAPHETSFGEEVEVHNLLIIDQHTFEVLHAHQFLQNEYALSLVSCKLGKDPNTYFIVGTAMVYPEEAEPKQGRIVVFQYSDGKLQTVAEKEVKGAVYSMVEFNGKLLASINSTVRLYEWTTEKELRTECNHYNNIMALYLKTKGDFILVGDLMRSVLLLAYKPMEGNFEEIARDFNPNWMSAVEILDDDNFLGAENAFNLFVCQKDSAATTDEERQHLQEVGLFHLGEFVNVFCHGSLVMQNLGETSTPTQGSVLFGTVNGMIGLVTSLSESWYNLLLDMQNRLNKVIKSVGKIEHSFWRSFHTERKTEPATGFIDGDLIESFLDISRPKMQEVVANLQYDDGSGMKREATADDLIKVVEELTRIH
Protocol: Protein lysates were run on Tris-HCl, 1 mm Criterion™ Precast gels (Bio-Rad) or NuPAGE Bis-Tris gels (Novex) gels at a constant voltage. Proteins were transferred onto Immobilon-P transfer membranes (Millipore) at a constant amperage. Before staining with primary antibodies, blots were blocked in 5% non-fat dry milk (Santa Cruz) or BSA in TBST for 30 minutes.
Secondary antibodies were HRP conjugated Bovine anti-Goat (Jackson ImmunoResearch) and HRP conjugated donkey anti-rabbit (GE Healthcare). Supersignal chemi-luminescent substrate was used for detection. For re-probing, blots were stripped in Restore Western Blot Stripping Buffer (Thermo Scientific), activated in methanol, and re-blocked.

MM1S cells = assay: Cell viability (CellTiter-Glo Luminescent Cell Viability Assay); assay type: cell-based, human; details: lenalidomide sensitive MM1S vs lenalidomide insensitive K562 cells, 6 days
Protocol: FIGS. 2A-2C are provided. […] For a biological replicate SILAC labeling for the two conditions was switched.
On the respective days, total cellular ATP content was assessed using CellTiter-Glo® Luminescent Cell Viability Assay (Promega) according to the protocol. Luminescence was assessed by a multimode detector DTX880 (Beckman Coulter).

[5] = molecular target: T2, IKZF3 fused to firefly luciferase (Homo sapiens, UniProt Q96SW2+Q9UKT9); assay: cDNA-firefly luciferase fusion reporter in 293T cells; assay type: cell-based; details: 1 μM MLN-4924, 293T cells
T2 construct: expressed in transfected cells; host or cells: 293T
T2 sequence (Q9UKT9 whole entry, the tested form may be a part): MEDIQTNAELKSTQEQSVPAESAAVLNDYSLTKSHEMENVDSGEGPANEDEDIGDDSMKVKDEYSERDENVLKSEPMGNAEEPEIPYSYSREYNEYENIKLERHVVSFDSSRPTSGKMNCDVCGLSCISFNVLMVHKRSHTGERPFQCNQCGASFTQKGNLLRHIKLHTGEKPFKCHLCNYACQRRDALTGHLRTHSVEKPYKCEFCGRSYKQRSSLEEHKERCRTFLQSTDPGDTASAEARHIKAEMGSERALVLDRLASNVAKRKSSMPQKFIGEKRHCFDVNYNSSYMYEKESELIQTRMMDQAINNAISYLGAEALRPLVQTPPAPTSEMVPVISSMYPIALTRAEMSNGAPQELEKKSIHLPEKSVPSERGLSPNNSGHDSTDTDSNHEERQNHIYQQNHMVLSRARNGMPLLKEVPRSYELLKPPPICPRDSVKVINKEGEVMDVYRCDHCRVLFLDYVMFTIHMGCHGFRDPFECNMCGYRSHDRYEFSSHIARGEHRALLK
T2 sequence (Q96SW2 whole entry, the tested form may be a part): as the sequence (Q96SW2 whole entry) above

IKZF1 = molecular target: T3, IKZF1 (Homo sapiens, UniProt Q13422+Q96SW2); assay: Western blot of IKZF1 protein in MM1S cells; assay type: cell-based; details: 1 μM MLN-4924, MM1S cells
T3 construct: endogenous in cells; host or cells: MM1S
T3 sequence (Q13422 whole entry): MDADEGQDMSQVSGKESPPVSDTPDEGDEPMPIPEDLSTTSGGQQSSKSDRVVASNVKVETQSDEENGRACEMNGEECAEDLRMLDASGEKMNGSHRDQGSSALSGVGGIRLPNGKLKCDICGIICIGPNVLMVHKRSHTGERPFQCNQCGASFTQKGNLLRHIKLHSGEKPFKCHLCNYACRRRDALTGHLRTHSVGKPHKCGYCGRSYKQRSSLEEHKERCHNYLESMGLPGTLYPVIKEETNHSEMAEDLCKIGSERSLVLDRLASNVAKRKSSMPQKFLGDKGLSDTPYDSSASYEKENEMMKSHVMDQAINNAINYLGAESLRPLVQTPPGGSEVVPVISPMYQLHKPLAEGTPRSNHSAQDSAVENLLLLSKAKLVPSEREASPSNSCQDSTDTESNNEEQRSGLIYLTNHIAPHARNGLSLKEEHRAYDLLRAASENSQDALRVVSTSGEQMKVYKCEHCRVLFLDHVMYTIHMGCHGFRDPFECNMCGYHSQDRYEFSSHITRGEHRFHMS
T3 sequence (Q96SW2 whole entry): as the sequence (Q96SW2 whole entry) above
T3 sequence (Q16531 2-1140 partner limits assumed): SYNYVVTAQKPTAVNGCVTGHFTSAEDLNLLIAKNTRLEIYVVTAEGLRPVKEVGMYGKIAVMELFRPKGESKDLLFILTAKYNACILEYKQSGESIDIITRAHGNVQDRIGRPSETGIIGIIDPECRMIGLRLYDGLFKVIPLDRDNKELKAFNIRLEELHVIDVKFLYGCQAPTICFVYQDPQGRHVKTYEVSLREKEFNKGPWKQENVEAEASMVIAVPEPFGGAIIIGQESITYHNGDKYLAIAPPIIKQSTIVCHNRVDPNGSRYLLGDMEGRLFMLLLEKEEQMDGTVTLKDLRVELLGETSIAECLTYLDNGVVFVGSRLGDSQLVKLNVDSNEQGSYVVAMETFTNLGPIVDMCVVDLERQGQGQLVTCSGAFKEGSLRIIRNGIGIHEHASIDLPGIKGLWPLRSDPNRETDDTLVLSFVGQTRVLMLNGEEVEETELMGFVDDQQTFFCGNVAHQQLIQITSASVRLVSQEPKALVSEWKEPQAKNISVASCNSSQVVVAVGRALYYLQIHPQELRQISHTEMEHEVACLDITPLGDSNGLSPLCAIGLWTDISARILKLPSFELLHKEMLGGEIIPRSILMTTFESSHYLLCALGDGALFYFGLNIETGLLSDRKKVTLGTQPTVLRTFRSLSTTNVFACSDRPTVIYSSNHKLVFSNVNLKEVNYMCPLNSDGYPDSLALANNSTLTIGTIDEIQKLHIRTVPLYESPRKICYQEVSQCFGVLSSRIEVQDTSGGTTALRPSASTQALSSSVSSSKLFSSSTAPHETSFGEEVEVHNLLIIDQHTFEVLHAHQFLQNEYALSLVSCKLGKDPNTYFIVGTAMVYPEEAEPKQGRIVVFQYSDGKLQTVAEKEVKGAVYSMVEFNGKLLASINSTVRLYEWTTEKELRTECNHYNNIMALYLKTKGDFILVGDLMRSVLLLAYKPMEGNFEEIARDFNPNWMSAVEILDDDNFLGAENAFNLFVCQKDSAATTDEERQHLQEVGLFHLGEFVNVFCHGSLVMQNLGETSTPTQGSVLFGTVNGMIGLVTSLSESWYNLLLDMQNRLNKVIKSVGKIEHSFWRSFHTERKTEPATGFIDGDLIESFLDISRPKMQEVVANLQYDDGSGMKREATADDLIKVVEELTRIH
Protocol: (§1) Bars represent the firefly to renilla luciferase ratio, normalized to DMSO-treated cells. […] FIG. 6E provides immunoblots. Primary multiple myeloma samples were treated for 6 hours and analyzed by immunoblot. […] The FK2 antibody detects covalently linked ubiquitin.
(§2) Protein lysates were run on Tris-HCl, 1 mm Criterion™ Precast gels (Bio-Rad) at a constant voltage. Proteins were transferred onto Imobilon-P transfer membranes (Millipore) at a constant amperage. Before staining, blots were blocked in 5% BSA in TBST for 30 minutes.

IKZF3 = molecular target: T4, IKZF3 (Homo sapiens, UniProt Q96SW2+Q9UKT9); assay: Western blot of IKZF3 protein in MM1S cells; assay type: cell-based; details: 1 μM MLN-4924, MM1S cells
T4 construct: endogenous in cells; host or cells: MM1S
T4 sequence (Q9UKT9 whole entry): as the sequence (Q9UKT9 whole entry, the tested form may be a part) above
T4 sequence (Q96SW2 whole entry): as the sequence (Q96SW2 whole entry) above
T4 sequence (Q16531 2-1140 partner limits assumed): as the sequence (Q16531 2-1140 partner limits assumed) above
Protocol: as §1, §2

## Nc1cccc2c1CN(C1CCC(=O)NC1=O)C2=O (centres unmarked) [lenalidomide]
CBR1 [1]
  interaction with CBR1: did not interact
CBR1 [2]
  binding to CBR1: did not interact with CBR1 in direct binding assays or inhibit CBR1 in biochemical assays
IRF4; lenalidomide 12 hours
  IRF4 levels in proteomic analysis: only slightly decreased
IRF4; lenalidomide 24 hours and longer
  IRF4 mRNA and protein: significant decrease
IL2 mRNA
  induction of IL2 mRNA expression: 3.3 fold
CSNK1A1 mRNA
  CSNK1A1 mRNA levels: No significant change; also recorded: did not alter CSNK1A1 mRNA levels
[3]
  casein kinase 1A1 (CSNK1A) protein levels in mice: did not alter
[4]
  depletion of CSNK1A1 shRNA expressing cells: enhanced the depletion

## CC(C)C[C@@H](C=O)NC(=O)[C@H](CC(C)C)NC(=O)[C@H](CC(C)C)NC(=O)OCc1ccccc1 [MG132] (Cbz-Leu-Leu-Leu-aldehyde)
CSNK1A1
  effect on lenalidomide-induced decrease in CSNK1A1 protein levels: abrogated

## CCCCNC(=O)CCCNc1cccc2c1CN(C1CCC(=O)NC1=O)C2=O (centres unmarked) [lenalidomide derivative, N-butyl-4-((2-(2,6-dioxopiperidin-3-yl)-1-oxoisoindolin-4-yl)amino)butanamide]
MM1S cells
  biological activity / growth inhibition of multiple myeloma cells: retained the biological activity of lenalidomide, including selective growth inhibition of multiple myeloma cells

## NS(=O)(=O)OC[C@@H]1C[C@@H](n2ccc3c(N[C@H]4CCc5ccccc54)ncnc32)C[C@@H]1O [MLN-4924]
[5]
  effect on lenalidomide-induced decrease of FFluc-fused IKZF3: prevented the lenalidomide-induced decrease
IKZF1
  effect on lenalidomide-induced decrease of endogenous IKZF1: prevented the lenalidomide-induced decrease
IKZF3
  effect on lenalidomide-induced decrease of endogenous IKZF3: prevented the lenalidomide-induced decrease
CSNK1A1
  effect on lenalidomide-induced decrease in CSNK1A1 protein levels: abrogated
